As usually defined, the EC50 is the concentration at which the effect is half-maximal.

The values that follow come from ChEMBL document CHEMBL3792335, “L-Aspartic and l-glutamic acid ester-based ProTides of anticancer nucleosides: Synthesis and antitumoral evaluation” (Bioorg Med Chem Lett, 2016).

Assay [1] can be described thus: Cytotoxicity against human U87 cells assessed as reduction in cell viability after 72 hrs by MTS assay. It counts as functional, cell-based, U-87MG ATCC. As to conditions: U-87 MG. (Tetrazolium dyes change colour on reduction, which living cells bring about.)
For a further assay, the system named is Jurkat. Nature of the assay: Cytotoxicity against human Jurkat cells assessed as reduction in cell viability after 72 hrs by MTS assay. Type of assay: functional, cell-based.
For the next assay, the system named is A549. Kind of assay: Cytotoxicity against human A549 cells assessed as reduction in cell viability after 72 hrs by MTS assay. It counts as functional, cell-based. As to conditions: A549, 72 h.
Assay [2] can be described thus: Cytotoxicity against human PC3 cells assessed as reduction in cell viability after 72 hrs by MTS assay. It counts as functional, cell-based. The note with it: PC-3, 72 h.
The next assay deals with Ramos. Kind of assay: Cytotoxicity against human Ramos cells assessed as reduction in cell viability after 72 hrs by MTS assay. It counts as functional, cell-based.

Turning to `CCOC(=O)CC[C@H](NP(=O)(OC[C@H]1O[C@@H](n2ccc(N)nc2=O)C(F)(F)[C@@H]1O)Oc1ccccc1)C(=O)OCC` (stereo not given in full), the EC50 in assay [1] was > 100 µM; with Jurkat, 0.129 µM; with A549, > 100 µM; in assay [2] it was 2.3 µM; with Ramos it was 365 nM.

For the compound `CC(C)CCOC(=O)CC[C@H](NP(=O)(OC[C@H]1O[C@@H](n2ccc(N)nc2=O)C(F)(F)[C@@H]1O)Oc1ccccc1)C(=O)OCCC(C)C` (stereo not given in full), the EC50 is > 100 µM in assay [1]; 1.2 µM with Jurkat; > 100 µM with A549; 10.9 µM in assay [2]; 1200 nM with Ramos.

Consider `CC(C)CCOC(=O)C[C@H](NP(=O)(OC[C@H]1O[C@@H](n2cc(F)c(=O)[nH]c2=O)C[C@@H]1O)Oc1ccccc1)C(=O)OCCC(C)C` (stereo not given in full), for which the EC50 in assay [1] was found to be 10.1 µM; in the assay with Jurkat it was 1.1 µM; in the assay with A549, 43.4 µM; in assay [2] it was 22.7 µM; with Ramos, 724 nM.

Consider `CC(C)CCOC(=O)[C@H](CC(=O)OCc1ccccc1)NP(=O)(OC[C@H]1O[C@@H](n2ccc(N)nc2=O)C(F)(F)[C@@H]1O)Oc1ccccc1` (stereo not given in full), for which the EC50 in assay [1] is 43.7 µM; with Jurkat, 0.209 µM; in the assay with A549 it was > 100 µM; in assay [2], 3.8 µM; with Ramos it was 700 nM.

On to `CC(C)CCOC(=O)C[C@H](NP(=O)(OC[C@H]1O[C@@H](n2ccc(N)nc2=O)C(F)(F)[C@@H]1O)Oc1ccccc1)C(=O)OCc1ccccc1` (stereo not given in full), for which the EC50 in assay [1] is > 100 µM; in the assay on Jurkat it was 0.21 µM; in the assay on A549, > 100 µM; in assay [2], 3.6 µM; in the assay on Ramos it was 813 nM.

`CC(C)CCOC(=O)C[C@H](NP(=O)(OC[C@H]1O[C@@H](n2cc(I)c(=O)[nH]c2=O)C[C@@H]1O)Oc1ccccc1)C(=O)OCCC(C)C` (stereo not given in full): the EC50 is 38 µM in assay [1]; 14.7 µM in the assay on Jurkat; 27 µM in the assay on A549; 33.3 µM in assay [2]; 13600 nM in the assay with Ramos.

On to `CC(C)CCOC(=O)C[C@H](NP(=O)(OC[C@H]1O[C@@H](n2cc(/C=C/Br)c(=O)[nH]c2=O)C[C@@H]1O)Oc1ccccc1)C(=O)OCCC(C)C` (stereo not given in full), for which the EC50 was 12.8 µM in assay [1]; 5.2 µM in the assay with Jurkat; 9.9 µM in the assay on A549; 12.5 µM in assay [2]; 6300 nM with Ramos.

For `CC(C)CCOC(=O)C[C@H](NP(=O)(OC[C@H]1O[C@@H](n2ccc(N)nc2=O)C(F)(F)[C@@H]1O)Oc1ccccc1)C(=O)OCCC(C)C` (stereo not given in full), the EC50 in assay [1] is 43.3 µM; in the assay on Jurkat it was 0.294 µM; in the assay on A549, > 100 µM; in assay [2] it was 3.5 µM; with Ramos, 294 nM.

As to `O=c1[nH]c(=O)n([C@H]2C[C@H](O)[C@@H](CO)O2)cc1/C=C/Br` [BRIVUDINE], the EC50 was > 100 µM in assay [1]; > 100 µM in the assay with Jurkat; > 100 µM in the assay on A549; > 100 µM in assay [2]; > 100000 nM with Ramos.

Turning to `O=c1[nH]c(=O)n([C@H]2C[C@H](O)[C@@H](CO)O2)cc1F` [FLOXURIDINE], the EC50 in assay [1] was determined as 18.2 µM; with Jurkat it was 0.00333 µM; in the assay on A549, 60.8 µM; in assay [2], 86.9 µM; in the assay on Ramos it was 7.51 nM.

In the case of `Nc1ccn([C@@H]2O[C@H](CO)[C@@H](O)C2(F)F)c(=O)n1` [GEMCITABINE], the half-maximal effective concentration (EC50) was > 100 µM in assay [1]; 0.023 µM in the assay on Jurkat; > 100 µM with A549; 0.065 µM in assay [2]; 0.03 nM in the assay on Ramos.

`O=c1[nH]c(=O)n([C@H]2C[C@H](O)[C@@H](CO)O2)cc1I` [IDOXURIDINE]: the EC50 was > 100 µM in assay [1]; 79.7 µM in the assay on Jurkat; > 100 µM in the assay on A549; > 100 µM in assay [2]; 47900 nM in the assay on Ramos.
